# In article PMC11091863 (RSC Advances, 2024):
# Key:
# [1] = test system: α-amylase; test: In vitro α-amylase inhibitory assay; details: for IC50: read-out: The α-amylase activity: IC50 ± SD, DF = 100
# [2] = test system: α-glucosidase; test: In vitro α-glucosidase inhibitory assay; format: biochemical; details: for α-Glucosidase activity: IC50 ± SD: DF = 100, five concentrations 10, 5, 1, 0.1, 0.01 μg mL^−1
# [3] = biological target: T1, Human PPAR-γ (Peroxisome Proliferator-Activated Receptor Gamma) (Homo sapiens, UniProt P37231); test: In vitro PPAR-γ transactivation assay; format: biochemical; details: for PPAR-γ Folds: folds compared to Pioglitazone (= 1)
# T1 sequence (P37231 1-505): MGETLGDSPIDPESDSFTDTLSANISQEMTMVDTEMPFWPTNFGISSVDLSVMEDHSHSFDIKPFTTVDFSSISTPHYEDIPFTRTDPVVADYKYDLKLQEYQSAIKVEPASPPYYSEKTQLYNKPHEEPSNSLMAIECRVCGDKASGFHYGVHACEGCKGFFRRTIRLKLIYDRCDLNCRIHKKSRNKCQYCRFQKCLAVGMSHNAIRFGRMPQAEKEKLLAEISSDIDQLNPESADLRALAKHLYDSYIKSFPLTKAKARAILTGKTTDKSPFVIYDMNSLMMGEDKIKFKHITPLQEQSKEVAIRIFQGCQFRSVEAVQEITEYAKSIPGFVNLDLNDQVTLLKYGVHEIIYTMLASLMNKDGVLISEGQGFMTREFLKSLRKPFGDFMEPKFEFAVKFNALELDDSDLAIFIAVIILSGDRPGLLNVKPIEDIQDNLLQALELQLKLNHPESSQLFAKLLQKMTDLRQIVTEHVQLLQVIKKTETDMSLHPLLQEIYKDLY
Structure (SMILES),The α-amylase activity: Inhibitory percentage at 100 μg mL^−1 [1],IC50 [1],α-Glucosidase activity: Inhibitory potential at 10 μg mL^−1 [2],α-Glucosidase activity: IC50 ± SD [2],IC50 [3],PPAR-γ Folds [3],"Increase of α-amylase inhibitory potency, fold ([1]; compound 2 relative to derivative 3)"
"NS(=O)(=O)c1ccc2oc(=O)c(C(=O)Nc3ccc(F)cc3)cc2c1 [Compound 6, N-(4-fluorophenyl)-2-oxo-6-sulfamoyl-2H-chromene-3-carboxamide]",95.4%,2.11 ± 0.03 µM,,,,,
"CC(=O)c1cc2cc(S(N)(=O)=O)ccc2oc1=O [Compound 4, 3-Acetyl-2-oxo-2H-chromene-6-sulfonamide]",94.2%,8.55 ± 0.31 µM,,,,,
"CCOC(=O)c1ccc(NC(=O)c2cc3cc(S(N)(=O)=O)ccc3oc2=O)cc1 [Compound 9, Ethyl 4-(2-oxo-6-sulfamoyl-2H-chromene-3-carboxamido)benzoate]",96.6%,1.08 ± 0.02 µM,83.8%,2.44 ± 0.09 µg/mL,8.9 µM,~1.32,
"N#CC(C#N)=C(N)c1cc2cc(S(N)(=O)=O)ccc2oc1=N [Compound 3, 3-(1-Amino-2,2-dicyanovinyl)-2-imino-2H-chromene-6-sulfonamide]",96%,14.6 ± 0.16 µM,,,,,
"CCOC(=O)c1cc2cc(S(N)(=O)=O)ccc2oc1=O [Compound 5, Ethyl 2-oxo-6-sulfamoyl-2H-chromene-3-carboxylate]",93.4%,32.6 ± 0.33 µM,,,,,
"N#Cc1cc2cc(S(N)(=O)=O)ccc2oc1=N [Compound 2, 3-Cyano-2-imino-2H-chromene-6-sulfonamide]",96.1%,1.76 ± 0.01 µM,90.7%,0.548 ± 0.02 µg/mL,12.6 µM,~1.55,~8.31 fold
"C[C@H]1O[C@H](O[C@H]2[C@H](O)[C@@H](O)[C@@H](O[C@H]3[C@H](O)[C@@H](O)C(O)O[C@@H]3CO)O[C@@H]2CO)[C@H](O)[C@@H](O)[C@@H]1N[C@H]1C=C(CO)[C@@H](O)[C@H](O)[C@H]1O (stereo partly drawn) [Acarbose, reference compound]",96.5%,,90.1%,,,,
"NS(=O)(=O)c1ccc2oc(=O)c(C(=O)Nc3cccc(C(F)(F)F)c3)cc2c1 [Compound 7, 2-Oxo-6-sulfamoyl-N-(3-(trifluoromethyl)phenyl)-2H-chromene-3-carboxamide]",96.2%,4.39 ± 0.06 µM,,,,,
"NS(=O)(=O)c1ccc2oc(=O)c(C(=O)Nc3ccc(Cl)cc3)cc2c1 [Compound 8, N-(4-chlorophenyl)-2-oxo-6-sulfamoyl-2H-chromene-3-carboxamide]",95.4%,4.23 ± 0.06 µM,,,,,
